Where a name gives a salt, the structure may show the parent alone.
Experiments:
[1] = target: T1, S1P1 (PathHunter CHO-K1 EDG1 β-Arrestin cell line) (Homo sapiens, UniProt P21453); assay: S1P-1 β-Arrestin recruitment assay; type: cell-based; details: CHO-K1 EDG1 β-Arrestin cells, chemi-luminescence
T1 construct: host or cells: PathHunter CHO-K1 EDG1 β-Arrestin cell line
Description: S1P-1 β-Arrestin Recruitment Assay
β-Arrestin recruitment assays were carried out using the PathHunter CHO-K1 EDG1
β-Arrestin cell line (DiscoveRx Corporation) in a chemi-luminescence detection assay. This cell line stably expresses β-Arrestin 2 and S1P1 fused to complementing portions of β-galactosidase (‘EA’ and ‘pro-link’, respectively) which associate upon Arrestin recruitment to form functional β-galactosidase enzyme.
Cells were grown to 80% confluency in Growth Medium (F12 nutrient HAMS supplemented with 10% heat-inactivated USA FBS, 1% L-glutamax, 800 μg/ml Geneticin and 300 μg/ml Hygromycin). Cells were harvested from the flask using Enzyme Free Cell Dissociation Buffer (Gibco) and washed from flasks with Optimem solution (Gibco). Cells were then centrifuged at 1000 rpm for 2-3 min and resuspended in Assay Buffer (Prepared from Sigma kit H1387 supplemented with 20 ml/L HEPES, 4.7 ml/L NaHCO3, 0.1% pluronic acid F-68 solution, 0.1% BSA and adjusted to pH 7.4 using sodium hydroxide at 1×10^6 cells/ml. Cells were dispensed into assay plates containing compounds (100n1/well of a solution of test compound in 100% DMSO) at 1×10^4 cells/well and incubated at 37° C./5% CO2 for 90 min followed by 15 min at room temperature. 5 μl detection mix (1 part Galacton Star, 5 parts Emerald II, 19 parts Assay Buffer; DiscoveRx) were added per well and the plates incubated at room temperature for 60 min. Luminescence was quantified using a Viewlux plate reader.

[2] = target: T2, S1P1 receptor (S1P1 expressing RH7777 membranes) (Homo sapiens, UniProt P21453); assay: S1P1 GTPγS assay; type: biochemical; details: tested in one of the above S1P1 assays (two GTPγS formats)
T2 construct: expressed in transfected cells; host or cells: RH7777 cells (membranes)
Description: The potencies and efficacies of the compounds of this invention for the S1P1 receptor can be determined by GTPγS assay performed on the human cloned receptor as described herein.
Membrane preparation for S1P1 GTPγS assay
All steps were performed at 4° C. Cells were homogenised within a glass Waring blender for 2 bursts of 15 secs in 200 mls of buffer (50 mM HEPES, 1 mM leupeptin, 25 μg/ml bacitracin, 1 mM EDTA, 1 mM PMSF, 2 μM pepstatin A). The blender was plunged into ice for 5 mins after the first burst and 10-40 mins after the final burst to allow foam to dissipate. The material was then spun at 500 g for 20 mins and the supernatant spun for 36 mins at 48,000 g. The pellet was resuspended in the same buffer as above but without PMSF and pepstatin A. The material was then forced through a 0.6 mm needle, made up to the required volume, (usually x4 the volume of the original cell pellet), aliquoted and stored frozen at −80° C.
S1P1 expressing RH7777 membranes (1.5 μg/well) membranes (1.5 μg/well) were homogenised by passing through a 23 G needle. These were then adhered to WGA-coated SPA beads (0.125 mg/well) in assay buffer (HEPES 20 mM, MgCl2 10 mM, NaCl 100 mM and pH adjusted to 7.4 using KOH 5M). GDP 10 μM FAC and saponin 90 μg/ml FAC were also added
After 30 minutes precoupling on ice, the bead and membrane suspension was dispensed into white Greiner polypropylene LV 384-well plates (5 μl/well), containing […] of compound. 5 μl/well [^35S]-GTPγS (0.5 nM for S1P1 or 0.3 nM for S1P3 final radioligand concentration) made in assay buffer was then added to the plates. The final assay cocktail (10.1 μl) was then sealed, spun on a centrifuge, then read immediately on a Viewlux instrument.
Alternatively, after 30 minutes precoupling on ice, the bead and membrane suspension was mixed with ^35S]-GTPγS (0.5 nM final radioligand concentration) in assay buffer (HEPES 20 mM, MgCl2 10 mM, NaCl 100 mM and pH adjusted to 7.4 using KOH 5M) in a 1:1 ratio. The bead, membrane and radioligand suspension was dispensed into white Greiner polypropylene low volume 384-well plates (10 μl/well), containing 0.1 μl of a solution of test compound in 100% DMSO. The final assay cocktail (10.1 μl) was then sealed, spun on a centrifuge, then read immediately on a Viewlux instrument.

T1 sequence (P21453 whole entry): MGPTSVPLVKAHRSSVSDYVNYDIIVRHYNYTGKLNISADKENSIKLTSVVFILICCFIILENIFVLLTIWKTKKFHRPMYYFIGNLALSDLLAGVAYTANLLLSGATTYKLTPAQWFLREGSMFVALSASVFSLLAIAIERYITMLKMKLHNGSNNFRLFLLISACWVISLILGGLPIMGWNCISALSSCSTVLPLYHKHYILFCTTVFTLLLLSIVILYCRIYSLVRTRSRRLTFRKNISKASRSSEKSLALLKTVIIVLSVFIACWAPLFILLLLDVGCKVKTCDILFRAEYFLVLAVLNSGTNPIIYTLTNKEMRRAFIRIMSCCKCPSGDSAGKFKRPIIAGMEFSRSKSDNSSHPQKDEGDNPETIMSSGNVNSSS
T1 sequence (P32121 whole entry partner): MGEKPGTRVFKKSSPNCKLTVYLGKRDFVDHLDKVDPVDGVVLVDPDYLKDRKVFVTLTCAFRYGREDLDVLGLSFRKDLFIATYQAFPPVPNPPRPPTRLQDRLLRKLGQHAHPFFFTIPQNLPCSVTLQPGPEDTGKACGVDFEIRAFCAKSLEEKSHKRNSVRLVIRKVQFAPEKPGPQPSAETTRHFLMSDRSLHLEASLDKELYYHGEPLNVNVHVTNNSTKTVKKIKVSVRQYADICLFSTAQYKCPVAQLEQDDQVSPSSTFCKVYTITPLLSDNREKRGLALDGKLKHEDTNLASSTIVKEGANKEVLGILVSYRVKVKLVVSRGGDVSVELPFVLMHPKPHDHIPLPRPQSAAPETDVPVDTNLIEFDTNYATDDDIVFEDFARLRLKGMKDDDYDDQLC
T2 sequence (P21453 whole entry): as the sequence (P21453 whole entry) above

Compound | EC50 [1] | EC50 [2]
CC(C)Oc1ccc(-c2nc(-c3ccc4c(c3)CCN(CCC(=O)N(C)C)CC4)no2)cc1C#N [Example 23, 3-[7-(5-{3-Cyano-4-[(1-methylethyl)oxy]phenyl}-1,2,4-oxadiazol-3-yl)-1,2,4,5-tetrahydro-3H-3-benzazepin-3-yl]-N,N-dimethylpropanamide] | ≤ 100 nM | 
COCCN1CCc2c(cccc2-c2nnc(-c3ccc(OC(C)C)c(C#N)c3)s2)C1 [Example 37, 2-[(1-Methylethyl)oxy]-5-(5-{2-[2-(methyloxy)ethyl]-1,2,3,4-tetrahydro-5-isoquinolinyl}-1,3,4-thiadiazol-2-yl)benzonitrile] | ≤ 100 nM | 
CC(C)Oc1ccc(-c2nc(-c3cccc4c3CCN(C(=O)CCN)C4)no2)cc1C#N [Example 88, 5-[3-(2-β-alanyl-1,2,3,4-tetrahydro-5-isoquinolinyl)-1,2,4-oxadiazol-5-yl]-2-[(1-methylethyl)oxy]benzonitrile hydrochloride] | ≤ 100 nM | 
CC(C)Oc1ccc(-c2nc(-c3ccc4c(c3)CCN(C(=O)CN[C@@H](C)CO)CC4)no2)cc1C#N [Example 99, 5-[3-(3-{N-[(1S)-2-hydroxy-1-methylethyl]glycyl}-2,3,4,5-tetrahydro-1H-3-benzazepin-7-yl)-1,2,4-oxadiazol-5-yl]-2-[(1-methylethyl)oxy]benzonitrile hydrochloride] |  | ≤ 10 nM
CC(=O)NCCN1CCc2ccc(-c3noc(-c4ccc(OC(C)C)c(C#N)c4)n3)cc2CC1 [Example 101, N-{2-[7-(5-{3-cyano-4-[(1-methylethyl)oxy]phenyl}-1,2,4-oxadiazol-3-yl)-1,2,4,5-tetrahydro-3H-3-benzazepin-3-yl]ethyl}acetamide] |  | ≤ 10 nM
COC(=O)NCCCN1CCc2ccc(-c3noc(-c4ccc(OC(C)C)c(C#N)c4)n3)cc2CC1 [Example 102, methyl {3-[7-(5-{3-cyano-4-[(1-methylethyl)oxy]phenyl}-1,2,4-oxadiazol-3-yl)-1,2,4,5-tetrahydro-3H-3-benzazepin-3-yl]propyl}carbamate] |  | ≤ 1000 nM
N#Cc1cc(-c2nc(-c3ccc4c(c3)CCN(CC(O)CO)CC4)no2)ccc1N1CC(F)C1 (stereo not drawn) [Example 104, 5-{3-[3-(2,3-dihydroxypropyl)-2,3,4,5-tetrahydro-1H-3-benzazepin-7-yl]-1,2,4-oxadiazol-5-yl}-2-(3-fluoro-1-azetidinyl)benzonitrile] |  | > 10000 nM
CCCOc1ncc(-c2nc(-c3ccc4c(c3)CCN(C(=O)CN)CC4)no2)cc1C#N [Example 107, 5-[3-(3-glycyl-2,3,4,5-tetrahydro-1H-3-benzazepin-7-yl)-1,2,4-oxadiazol-5-yl]-2-(propyloxy)-3-pyridinecarbonitrile] |  | ≤ 1000 nM
CC(C)Nc1ncc(-c2nc(-c3ccc4c(c3)CCN(C(CO)CO)CC4)no2)cc1C#N [Example 108, 5-(3-{3-[2-hydroxy-1-(hydroxymethyl)ethyl]-2,3,4,5-tetrahydro-1H-3-benzazepin-7-yl}-1,2,4-oxadiazol-5-yl)-2-[(1-methylethyl)amino]-3-pyridinecarbonitrile hydrochloride] | ≤ 100 nM | 
CCCOc1ncc(-c2nc(-c3ccc4c(c3)CCN(C(CO)CO)CC4)no2)cc1C#N [Example 109, 5-(3-{3-[2-hydroxy-1-(hydroxymethyl)ethyl]-2,3,4,5-tetrahydro-1H-3-benzazepin-7-yl}-1,2,4-oxadiazol-5-yl)-2-(propyloxy)-3-pyridinecarbonitrile] |  | ≤ 1000 nM
CCOc1ncc(-c2nc(-c3ccc4c(c3)CCN(C(CO)CO)CC4)no2)cc1C#N [Example 110, 2-(ethyloxy)-5-(3-{3-[2-hydroxy-1-(hydroxymethyl)ethyl]-2,3,4,5-tetrahydro-1H-3-benzazepin-7-yl}-1,2,4-oxadiazol-5-yl)-3-pyridinecarbonitrile] |  | ≤ 1000 nM
CCOc1ncc(-c2nc(-c3ccc4c(c3)CCN(C(=O)CN)CC4)no2)cc1C#N [Example 113, 2-(ethyloxy)-5-[3-(3-glycyl-2,3,4,5-tetrahydro-1H-3-benzazepin-7-yl)-1,2,4-oxadiazol-5-yl]-3-pyridinecarbonitrile] |  | ≤ 1000 nM
CCCOc1ncc(-c2nc(-c3ccc4c(c3)CCN(C[C@H](O)CO)CC4)no2)cc1C#N [Example 115, 5-(3-{3-[(2S)-2,3-dihydroxypropyl]-2,3,4,5-tetrahydro-1H-3-benzazepin-7-yl}-1,2,4-oxadiazol-5-yl)-2-(propyloxy)-3-pyridinecarbonitrile] |  | ≤ 1000 nM
CC(C)Oc1ccc(-c2nc(-c3ccc4c(c3)CCN(C(=O)C(C)(C)N)CC4)no2)cc1C#N [Example 117, 5-{3-[3-(2-methylalanyl)-2,3,4,5-tetrahydro-1H-3-benzazepin-7-yl]-1,2,4-oxadiazol-5-yl}-2-[(1-methylethyl)oxy]benzonitrile] |  | ≤ 1000 nM

Next, values leading:

EC50 [1] | EC50 [2] | Compound
 | ≤ 10 nM | Cc1c(-c2noc(-c3ccc(OC(C)C)c(C#N)c3)n2)ccc2c1CCN(CC(=O)NC[C@@H](C)O)C2 [Example 120, 2-[6-(5-{3-cyano-4-[(1-methylethyl)oxy]phenyl}-1,2,4-oxadiazol-3-yl)-5-methyl-3,4-dihydro-2(1H)-isoquinolinyl]-N-[(2R)-2-hydroxypropyl]acetamide hydrochloride]
 | ≤ 10 nM | Cc1c(-c2noc(-c3ccc(OC(C)C)c(C#N)c3)n2)ccc2c1CCN(CC(=O)NC[C@H](C)O)C2 [Example 121, 2-[6-(5-{3-cyano-4-[(1-methylethyl)oxy]phenyl}-1,2,4-oxadiazol-3-yl)-5-methyl-3,4-dihydro-2(1H)-isoquinolinyl]-N-[(2S)-2-hydroxypropyl]acetamide hydrochloride]
 | ≤ 100 nM | Cc1c(-c2noc(-c3ccc(OC(C)C)c(C#N)c3)n2)ccc2c1CCN(C(=O)CN)CC2 [Example 140, 5-[3-(3-glycyl-6-methyl-2,3,4,5-tetrahydro-1H-3-benzazepin-7-yl)-1,2,4-oxadiazol-5-yl]-2-[(1-methylethyl)oxy]benzonitrile hydrochloride]
 | ≤ 1000 nM | CCCNc1ncc(-c2nc(-c3ccc4c(c3)CCN(C[C@H](O)CO)CC4)no2)cc1C#N [Example 143, 5-(3-{34[(2S)-2,3-dihydroxypropyl]-2,3,4,5-tetrahydro-1H-3-benzazepin-7-yl}-1,2,4-oxadiazol-5-yl)-2-(propylamino)-3-pyridinecarbonitrile hydrochloride]
 | ≤ 1000 nM | CCCNc1ncc(-c2nc(-c3ccc4c(c3C)CCN(C[C@H](O)CO)CC4)no2)cc1C#N [Example 145, 5-(3-{34[(2S)-2,3-dihydroxypropyl]-6-methyl-2,3,4,5-tetrahydro-1H-3-benzazepin-7-yl}-1,2,4-oxadiazol-5-yl)-2-(propylamino)-3-pyridinecarbonitrile]
 | ≤ 1000 nM | CCCNc1ncc(-c2nc(-c3ccc4c(c3C)CCN(C(CO)CO)CC4)no2)cc1C#N [Example 149, 5-(3-{3-[2-hydroxy-1-(hydroxymethyl)ethyl]-6-methyl-2,3,4,5-tetrahydro-1H-3-benzazepin-7-yl}-1,2,4-oxadiazol-5-yl)-2-(propylamino)-3-pyridinecarbonitrile]
 | ≤ 1000 nM | CCCNc1ncc(-c2nc(-c3ccc4c(c3)CCN(C(CO)CO)CC4)no2)cc1C#N [Example 150, 5-(3-{3-[2-hydroxy-1-(hydroxymethyl)ethyl]-2,3,4,5-tetrahydro-1H-3-benzazepin-7-yl}-1,2,4-oxadiazol-5-yl)-2-(propylamino)-3-pyridinecarbonitrile dihydrochloride]

— US20120101083A1, “S1P1 AGONISTS COMPRISING A BICYCLIC N-CONTAINING RING” (GLAXO GROUP LIMITED, priority 2009, published 2012)
